Active and inactive are the calls of the source. No cut-off for these calls is given here.
Key:
MSC [1] = experiment: Induction of osteoblast nodule formation in human MSC cultures assessed as mineral incorporation at 0.1 to 1 uM by blue incubated for 1 to 14 days calcein detection based fluorescent micrography; format: functional, cell-based; details: dose 0.1-1 µM, time 1-14 day
MSC [2] = experiment: Bone activity in human MSC cultures assessed as promotion of osteogenesis at 0.1 to 1 uM dosed on days 1 to 7 and measured on day 7 by alkaline phosphatase activity detection detection assay; format: functional; details: dose 0.1-1 µM, time 7.0 day
[3] = target: High affinity nerve growth factor receptor (Homo sapiens) (UniProt P04629); experiment: Inhibition of full-length C-terminal his-tagged human TRKA at 1 uM pre-incubated with enzyme for 1 h prior to the addition of 500 uM ATP relative to control
[4] = target: T1, Aurora kinase A (Homo sapiens) (UniProt O14965); experiment: Inhibition of full-length C-terminal his-tagged human AUR2 at 1 uM pre-incubated with enzyme for 1 h prior to the addition of 500 uM ATP relative to control
T1 sequence (whole entry): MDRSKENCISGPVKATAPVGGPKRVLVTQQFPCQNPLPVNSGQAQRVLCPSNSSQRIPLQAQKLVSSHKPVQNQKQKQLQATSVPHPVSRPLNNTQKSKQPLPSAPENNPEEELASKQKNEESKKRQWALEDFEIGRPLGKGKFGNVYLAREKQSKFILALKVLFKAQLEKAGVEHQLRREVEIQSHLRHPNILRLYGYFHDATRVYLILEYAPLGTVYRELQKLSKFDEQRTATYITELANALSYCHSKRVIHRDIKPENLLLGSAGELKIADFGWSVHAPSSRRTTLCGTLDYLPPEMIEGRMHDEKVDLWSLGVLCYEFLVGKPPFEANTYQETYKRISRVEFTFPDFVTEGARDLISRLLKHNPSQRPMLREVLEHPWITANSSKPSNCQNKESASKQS

[5] = target: T2, Tyrosine-protein kinase JAK3 (Homo sapiens) (UniProt P52333); experiment: Inhibition of full-length C-terminal his-tagged human JAK3 at 1 uM pre-incubated with enzyme for 1 h prior to the addition of 500 uM ATP relative to control
T2 sequence (whole entry): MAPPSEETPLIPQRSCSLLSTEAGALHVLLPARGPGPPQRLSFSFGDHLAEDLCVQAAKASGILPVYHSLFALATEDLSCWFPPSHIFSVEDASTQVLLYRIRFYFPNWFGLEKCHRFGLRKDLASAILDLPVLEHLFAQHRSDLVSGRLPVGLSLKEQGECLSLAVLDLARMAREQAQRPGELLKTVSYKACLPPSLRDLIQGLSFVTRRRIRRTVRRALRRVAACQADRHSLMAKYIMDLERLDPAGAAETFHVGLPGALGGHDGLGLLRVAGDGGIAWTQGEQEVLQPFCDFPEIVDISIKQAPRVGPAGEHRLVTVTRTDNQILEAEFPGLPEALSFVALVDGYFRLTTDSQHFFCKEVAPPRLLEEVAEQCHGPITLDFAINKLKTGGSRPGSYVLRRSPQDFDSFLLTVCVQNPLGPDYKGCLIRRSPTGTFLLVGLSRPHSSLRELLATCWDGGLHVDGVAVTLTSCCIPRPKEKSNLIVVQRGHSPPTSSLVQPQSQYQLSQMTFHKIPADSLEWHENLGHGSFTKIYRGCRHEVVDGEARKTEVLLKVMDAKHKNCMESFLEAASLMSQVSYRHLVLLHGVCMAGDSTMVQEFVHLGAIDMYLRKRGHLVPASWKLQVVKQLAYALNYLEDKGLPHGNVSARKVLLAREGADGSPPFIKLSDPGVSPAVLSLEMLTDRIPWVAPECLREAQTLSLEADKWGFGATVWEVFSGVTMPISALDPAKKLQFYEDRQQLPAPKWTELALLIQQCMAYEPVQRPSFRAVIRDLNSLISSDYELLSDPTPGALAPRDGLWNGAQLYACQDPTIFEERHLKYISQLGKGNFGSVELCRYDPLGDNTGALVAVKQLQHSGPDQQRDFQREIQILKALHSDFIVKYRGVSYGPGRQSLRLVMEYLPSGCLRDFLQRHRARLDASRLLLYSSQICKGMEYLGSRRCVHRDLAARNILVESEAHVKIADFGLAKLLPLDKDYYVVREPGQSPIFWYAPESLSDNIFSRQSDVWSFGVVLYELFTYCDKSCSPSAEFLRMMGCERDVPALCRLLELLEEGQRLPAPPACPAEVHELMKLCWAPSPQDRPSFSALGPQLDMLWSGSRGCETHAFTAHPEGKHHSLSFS

MSC [6] = experiment: Bone activity in human MSC cultures assessed as promotion of osteogenesis at 0.1 to 1 uM dosed on days 4 to 7 and measured on day 7 by alkaline phosphatase activity detection detection assay; format: functional; details: dose 0.1-1 µM, time 4.0 day

High affinity nerve growth factor receptor (Homo sapiens), sequence (P04629 33-796 limits assumed): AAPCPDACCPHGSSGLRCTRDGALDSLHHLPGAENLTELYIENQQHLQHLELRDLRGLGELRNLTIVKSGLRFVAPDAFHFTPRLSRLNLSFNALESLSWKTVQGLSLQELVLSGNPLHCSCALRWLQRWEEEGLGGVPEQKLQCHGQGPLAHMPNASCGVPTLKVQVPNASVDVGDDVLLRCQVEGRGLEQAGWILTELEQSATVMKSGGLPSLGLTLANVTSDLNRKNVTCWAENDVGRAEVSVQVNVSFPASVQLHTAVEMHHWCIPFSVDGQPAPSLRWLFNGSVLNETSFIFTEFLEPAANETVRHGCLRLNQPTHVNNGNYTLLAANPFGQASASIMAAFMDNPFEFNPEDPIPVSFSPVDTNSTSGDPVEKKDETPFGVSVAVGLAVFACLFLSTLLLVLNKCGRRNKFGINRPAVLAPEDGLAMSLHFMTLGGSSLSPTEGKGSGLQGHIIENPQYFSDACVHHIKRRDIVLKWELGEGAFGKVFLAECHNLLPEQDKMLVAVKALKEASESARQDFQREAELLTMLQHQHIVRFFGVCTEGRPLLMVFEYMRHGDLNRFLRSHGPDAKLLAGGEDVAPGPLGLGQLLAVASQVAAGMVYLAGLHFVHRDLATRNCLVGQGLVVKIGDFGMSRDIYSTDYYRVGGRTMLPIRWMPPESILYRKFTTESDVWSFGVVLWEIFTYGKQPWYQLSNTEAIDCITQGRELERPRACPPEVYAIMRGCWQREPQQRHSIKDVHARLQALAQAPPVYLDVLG

Activity (MSC [2])	inhibition [3] [%]	inhibition [4] [%]	inhibition [5] [%]	Activity (MSC [6])	Compound	Activity (MSC [1])
Dose-Dependent Effect					Cc1ccc(-n2nc(C(C)(C)C)cc2NC(=O)Nc2cc(COc3cccnc3)n[nH]2)cc1	Active
	> 90	> 90	> 90	Active	CN(c1ccccc1CNc1nc(Nc2ccc3c(c2)CC(=O)N3)ncc1C(F)(F)F)S(C)(=O)=O	inactive

Source: ChEMBL document CHEMBL5647685
